Data as given in PMC12394750, “2H-1,4-Benzoxazin-3(4H)-one linked 1,2,3-triazole derivatives and their study on inducing DNA damage in tumor cells” (Frontiers in Pharmacology, 2025).

What was measured:
[1] = system: A549 (lung cancer); assay: CCK-8 cell viability, A549; assay type: cell-based; details: Homo sapiens, 72 h
Procedure: To assess the cytotoxic potential of the newly synthesized compounds c1–c20, a panel of human tumor cell lines—including Huh-7 (hepatocellular carcinoma), MCF-7 (breast cancer), and A549 (lung cancer)—was treated with each compound at a concentration of 50 μM for 72 h. Cell viability and cytotoxicity were evaluated using the CCK-8 assay.
Cells were cultured in DMEM or RPMI 1640 medium with 10% FBS and 1% penicillin/streptomycin at 37 °C and 5% CO2. A CCK-8 assay was performed with several human cancer cell lines, including A549, Huh-7, MCF-7, HCT-116, and SKOV3, according to the instructions. Cells were plated at a density of 1,000–3,000 cells per well in a 96-well plate. After 24-h incubation, cells were treated with 40 μM compounds for 48 h or 50 μM compounds for 72 h. Cell viability was measured by adding 10 μL per well of CCK-8 reagent, which was dissolved in the cell culture medium, for 1 hour. Absorbance was taken at 450 nm using a microplate reader. The IC50 values of the compounds were further determined. Cells were seeded in a 96-well plate at a density of 1 × 10^3 cells/well. After adhering overnight, cells treated with […] concentrations (10 μM, 20 μM, 40 µM, or 80 μM) were used to draw the dose–response curve, and IC50 values were calculated by GraphPad Prism software. The CCK-8 assay was performed in triplicate, and each experiment was repeated at least three times. The results were expressed as mean ± SEM, and P < 0.05 was considered statistically significant.

[2] = CCK-8 cell viability, L02; assay type: cell-based; details: human, L02 normal liver cells
[3] = system: Huh-7 cells; assay: Annexin V-FITC/PI apoptosis flow cytometry; assay type: cell-based, human; details: Huh-7, 10, 20 or 30 μM, 72 h
Procedure: Apoptosis, a programmed form of cell death, was investigated to understand the molecular mechanisms behind the anti-proliferative effects of the novel compounds. Huh-7 cells were treated with various concentrations (10 μM, 20 μM, or 30 μM) of compounds c5, c14, c16, and c18 for 72 h. The cells were then stained with Annexin V-FITC and propidium iodide (PI) and analyzed by flow cytometry to determine the proportion of apoptotic cells.
Cells were plated at a density of 3 × 10^5 cells per well in a 6-well plate. Different concentrations of compounds were added to cells for 72 h. Then, cells were collected and washed with PBS. Annexin V-FITC and propidium iodide were then added to stained cells for 20 min. Apoptotic cells were quantified by a flow cytometer, and raw data were further analyzed by Flow Jo software v10. Values were expressed as mean ± SEM. Statistical significance was assessed using one-way ANOVA followed by the Student–Newman–Keuls test. P < 0.05 was considered statistically significant. Data were visualized using GraphPad Prism.

[4] = system: Huh-7 cells; assay: RT-PCR gene expression; assay type: cell-based, human; details: Huh-7, 72 h; for ATG7 gene expression / H2AX gene expression / TNF-α gene expression / p53 gene expression / Keap1 gene expression / p21 gene expression: c5, c14, c16 30 μM; for Bax gene expression / Bcl2 gene expression: c14, c16 30 μM; for Caspase-7 gene expression: c5, c14 30 μM
Procedure: To investigate the molecular mechanisms underlying the anti-tumor activity of 2H-1,4-benzoxazin-3(4H)-one linked 1,2,3-triazole derivatives, we examined the expression of key genes involved in cell growth and death, including those related to DNA damage, oxidative stress, apoptosis, and autophagy. Huh-7 cells were treated with compounds c5 (30 μM), c14 (30 μM), c16 (30 μM), and c18 (20 μM) for 72 h, followed by RT-PCR analysis.
FIGURE 5 Compounds c5, c14, c16, and c18 increased the gene expression. (A–D) Huh-7 cells were treated with different concentrations of compounds c5, c14, c16, and c18 (20 or 30 μM) for 72 h. Gene expressions were detected by RT-PCR. Data were presented as means ± SEM; *P < 0.05.
Huh-7 cells were seeded in a 12-well plate and treated with compounds for 72 h. Total RNA was extracted using TRIzol reagent (Ambion, United States), and RT-PCR was performed using PowerUp™ SYBR™ Green Master Mix (ABI, United States). Gene expression was normalized to GAPDH. Values were expressed as mean ± SEM. Statistical significance was assessed using a two-tailed Student’s t-test. P < 0.05 was considered statistically significant.

[5] = system: Huh-7 cells; assay: DNA damage staining (γ-H2AX); assay type: cell-based, human; details: Huh-7, 10, 20 or 30 μM, 24 h
Procedure: In order to further verify the effects of 2H-1,4-benzoxazin-3(4H)-one linked 1,2,3-triazole derivatives on DNA damage, Huh-7 cells were treated with different concentrations (10 μM, 20 μM, or 30 μM) of compounds c5, c14, c16, and c18. After 24 h of treatment, cells were detected with the DNA damage assay kit and observed under a fluorescence microscope.
FIGURE 7 Compounds c5, c14, c16, and c18 affected DNA damage. (A–D) DNA damage detection shown by γ-H2AX staining in Huh-7 cells treated with compounds c5, c14, c16, and c18 (10 μM, 20 μM, or 30 μM).
Huh-7 cells with a density of 2 × 10^3 cells/well were seeded in 96-well plates. Different doses (0 μM, 5 μM, 10 μM, 20 μM, or 30 μM) of the compounds were added to cells for 24 h. A DNA Damage Detection Kit was used to dye the cells. The cell nucleus was stained blue, and DNA-damaged cells were stained green. The cells were observed and photographed by a fluorescent microscope.

[6] = system: KM mice; assay: Acute toxicity test, HE staining of organs; assay type: in vivo; details: male KM mice, 500 mg/kg via gavage, 14 consecutive days
Procedure: We assessed the safety of compound c18 using an acute toxicity test in KM mice. Male mice were divided into a control group and a c18-treated group, with the latter receiving 500 mg/kg of compound c18 via gavage for 14 consecutive days, while the control group received an equivalent volume of solvent. To evaluate the safety of compound c18, major organs—including the heart, liver, spleen, lungs, and kidneys—were collected from treated KM mice and subjected to hematoxylin and eosin (HE) staining.

SMILES | viability at 50 µM [1] | viability at 72 h, 50 µM [2] | Apoptosis (proportion of apoptotic cells) [3] | ATG7 gene expression ([4]; c18 20 μM) | H2AX gene expression ([4]; c18 20 μM) | TNF-α gene expression ([4]; c18 20 μM) | p53 gene expression ([4]; c18 20 μM) | Bax gene expression [4] | Bcl2 gene expression [4] | DNA damage (γ-H2AX staining) [5] | Atg5 gene expression ([4]; c5 30 μM) | Gpx4 gene expression ([4]; c5 30 μM) | Nrf2 gene expression ([4]; c5 30 μM) | Caspase-7 gene expression [4] | Keap1 gene expression ([4]; c18 20 μM) | p21 gene expression ([4]; c18 20 μM) | apoptosis-related gene expression ([4]; c18 20 μM) | Histopathological changes of heart, liver, spleen, lungs, kidneys (HE staining) [6] | autophagy-related gene expression ([4]; c14 30 μM) | caspase-6 gene expression ([4]; c14 30 μM)
O=C1COc2cc(NC(=O)c3cccc(-c4cn(Cc5ccc(C(F)(F)F)cc5)nn4)c3)ccc2N1 [compound c16, N-(3-oxo-3,4-dihydro-2H-benzo[b][1,4]oxazin-7-yl)-3-(1-(4-(trifluoromethyl)benzyl)-1H-1,2,3-triazol-4-yl)benzamide] | 76.8 ± 4.31% | 117 ± 1.41% | significant, dose-dependent increases | downregulated | markedly upregulated | markedly upregulated | markedly upregulated | elevated | elevated | significantly induce cell DNA damage | – | – | – | – | – | – | – | – | – | –
O=C1COc2cc(NC(=O)c3cccc(-c4cn(Cc5ccc(Br)cc5)nn4)c3)ccc2N1 [compound c5, 3-(1-(4-bromobenzyl)-1H-1,2,3-triazol-4-yl)-N-(3-oxo-3,4-dihydro-2H-benzo[b][1,4]oxazin-7-yl)benzamide] | 90.8 ± 5.32% | 101 ± 3.35% | significant, dose-dependent increases | downregulated | no significant changes | significantly upregulated | no significant changes | – | – | significantly induce cell DNA damage | remained unchanged | either downregulated or unchanged | either downregulated or unchanged | notably increased | significantly upregulated | no significant changes | – | – | – | –
O=C1COc2cc(NC(=O)c3cccc(-c4cn(Cc5ccc(Cl)cc5)nn4)c3)ccc2N1 [compound c18, 3-(1-(4-chlorobenzyl)-1H-1,2,3-triazol-4-yl)-N-(3-oxo-3,4-dihydro-2H-benzo[b][1,4]oxazin-7-yl)benzamide] | 89.8 ± 2.89% | 117 ± 1.27% | significant, dose-dependent increases | downregulated | – | – | – | – | – | significantly induce cell DNA damage | – | – | – | – | dramatically upregulated | dramatically upregulated | no changes | no significant histopathological changes | – | –
O=C1COc2cc(NC(=O)c3cccc(-c4cn(Cc5cccc(F)c5)nn4)c3)ccc2N1 [compound c14, 3-(1-(3-fluorobenzyl)-1H-1,2,3-triazol-4-yl)-N-(3-oxo-3,4-dihydro-2H-benzo[b][1,4]oxazin-7-yl)benzamide] | 77.5 ± 3.1% | 116 ± 1.18% | significant, dose-dependent increases | – | significantly upregulated | – | unchanged or downregulated | no significant changes | significantly increased | significantly induce cell DNA damage | – | – | – | no significant changes | significantly increased | unchanged or downregulated | – | – | No differences | no significant changes
